# Source: patent US7381744B1, “Method of treating osteoporosis comprising vacuolar-type (H+)-ATPase-inhibiting compounds” (The United States of America as represented by the …, priority 1999, dated 2008)
# Assays:
# [1] = test system: mammalian vacuolar-type (H+)-ATPase (from chromaffin granule membranes); test: mammalian vacuolar-type (H+)-ATPase inhibition, side-by-side test; assay type: biochemical; details: chromaffin granule membranes; side-by-side test
# Excerpt: (§1) The inhibitory data were obtained using the same procedures and biological preparations described in Bowman et al., Proc. Natl. Acad. Sci. USA, 85, 7972-7976 (November 1988).
# [2] = test system: fungal vacuolar-type (H+)-ATPase (from Neurospora crassa); test: fungal vacuolar-type (H+)-ATPase inhibition, side-by-side test; assay type: biochemical
# Excerpt: as §1
compound,measurement,setting,value
"C/C=C/[C@H]1O[C@@](O)([C@@H](C)[C@H](O)[C@H](C)[C@H]2OC(=O)/C(OC)=C/C(C)=C/[C@@H](C)[C@@H](O)[C@@H](CC)[C@@H](O)[C@H](C)C/C(C)=C/C=C/[C@@H]2OC)C[C@@H](O[C@H]2C[C@@H](O)[C@H](OC(N)=O)[C@@H](C)O2)[C@@H]1C [concanamycin A, reference compound]",inhibitory activity against mammalian vacuolar-type (H+)-ATPase,[1],potent inhibitor
same,inhibitory activity against fungal vacuolar-type (H+)-ATPase,[2],potent inhibitor
